Here are results for three compounds from PMC11855827, “High-Throughput Screening of Five Compound Libraries for Anthelmintic Activity and Toxicity Leads to the Discovery of Two Flavonoid Compounds” (International Journal of Molecular Sciences, 2025).

The structures appear in SMILES notation. “And” between values parts separate entries of the source, which are not always exact repeats. Equal values may be shown once. Read-outs that look alike come from different tables or passages of the source.

Data set [1] has as its system H. contortus susceptible strain. As to the kind of experiment: Egg hatch inhibition (EHI), ovicidal effect. Details: species or system Haemonchus contortus. The following applies: for EC50: egg hatching, susceptible H. contortus, nine replicates, read-out: Ovicidal Effect EC50 (μM) H. c.
Data set [2] relates to T. circumcincta resistant strain. Nature of the data set: Larval migration inhibition test (LMIT). Set-up: species or system Teladorsagia circumcincta. As to conditions: Teladorsagia circumcincta, 24 h; resistant strain, L3, 100 μM; NE = Not Effective at 100 μM; control ivermectin 8.75 µg/mL; read-out: T. circumcincta LMIT (%). From the text: (§1) Eggs and third instar larvae (L3) of H. contortus from a field strain and a resistant strain of T. circumcincta were used in the current trials. These parasitic forms were obtained from fresh feces of Merino and Churra sheep experimentally infected at the experimental farm of the Instituto de Ganadería de Montaña (IGM, CSIC, Gruyeros, León, Spain) and purified according to previously described methods. Briefly, eggs were taken from fresh feces, washed, centrifuged and floated with a saturated sodium chloride solution, then concentrated, counted and used in the assays. L3 were obtained by culturing feces at 25 °C for 13 d. L3 larvae were […] in 0.5% sodium hypochlorite solution for 10 min at room temperature and washed to avoid excess salt. After washing, they were concentrated and counted for use.
(§2) The viability of H. contortus larvae was assessed by the larval migration inhibition test (LMIT) according to previously described methods. Briefly, 700 µL aliquots containing 500–600 L3 were prepared for each compound. […] After a 24 h incubation at 28 °C, the compound was removed by three washes, leaving a final volume of 1400 µL. After the washes, three 400 µL aliquots were taken from each tube and transferred to a 96-well plate with a MultiScreen mesh filter. The plates were incubated for a further 24 h at 28 °C to allow the motile L3 to pass through the 20 µm mesh for counting. Then, the number of larvae present in each well was counted to determine percentage of larval migration for each compound: % Larval migration=number of larvae migrating in compound wells/number of larvae migrating in negative control×100
(§3) For the larvae, ivermectin at 8.75 µg/mL and DMSO 0.5% (v/v) were used as controls and at least 12 replicates were performed. […] EC50 were determined by plotting the percentage of viability of the L1 against the concentration of each compound, using the nonlinear fit analysis provided by the SigmaPlot® 10.1.

Data set [3] in a line: Spheroids toxicity assay (alamarBlue). The data set is classed as cell-based. The following applies: human. Here is the method:
(§4) HepG2 cells were cultured as a monolayer under standard conditions, using DMEM/F12 medium supplemented with L-glutamine and 15 mM HEPES buffer (pH 7.2) supplemented with 10% fetal bovine serum (FBS) and antibiotic mixture (100 U/mL penicillin and 100 µg/mL streptomycin) at 37 °C and 5% CO2, according to previous published protocols.
(§5) Cells were detached from the culture flask using 0.25% trypsin solution and then centrifuged at 500× g for 6.5 min. After centrifugation, the supernatant was discarded, and the pellet was resuspended in culture medium. Cells were passed gently through a G27 needle several times and then counted. Cells were dispensed into a tissue treated Nunclon™ Sphera™ 96-well U-bottom plate (Thermo Scientific™, Waltham, MA, USA, 174925) in a final volume of 50 µL to a total of 2500 cells/well. In addition, another 50 µL of medium supplemented with Rat Tail Collagen I (Gibco™, Thermo Scientific™, Waltham, MA, USA, A1048301) was dispensed, to achieve a final concentration in a plate of 3 µg/mL for each well. The plate was centrifuged at 500× g for 1 min.
(§6) On Day 4, 100 µL of a serial dilution of the testing compounds were added to each well. For controls, 0.03% H2O2 (v/v) as positive control and 0.2% DMSO (v/v) as negative control were used.
(§7) To determine the viability of the spheroids to the testing compounds, a 20% of alamarBlue™ HS reagent (Invitrogen™, Thermo Fisher Scientific™, Waltham, MA, USA) was added on Day 7 and the results were read 24 h later using a Varioskan™ LUX (Thermo Scientific, USA, Instrument software ver. 1.00.37, Skanlt software ver. 5.0.0.42). All assays were conducted in duplicate across at least three independent experiments.
(Alamar Blue is a resazurin reagent that responds to reducing activity.)

For data set [4] the following is noted: Globally Harmonized System (GHS) / ECHA; cited from earlier work.
Data set [5] can be described thus: Mouse intestinal organoids' tolerance assay (alamarBlue). The following applies: C57BL/6, mouse; for selectivity ratio at 3 d: mouse intestinal organoids (enteroids).
Data set [6] deals with C. elegans. As to the kind of experiment: C. elegans motility dose-response (DR) assay. Set-up: species or system Caenorhabditis elegans.
The test system of data set [7] is T. circumcincta resistant strain. As to the kind of experiment: Egg hatch inhibition (EHI), ovicidal effect. Set-up: species or system Teladorsagia circumcincta. The following applies: for EC50: egg hatching, resistant T. circumcincta, nine replicates, read-out: Ovicidal Effect EC50 (μM) T. c.
The subject of data set [8] is C. elegans. As to the kind of experiment: microbe, parasite or virus in culture. The following applies: Caenorhabditis elegans.
In data set [9] the test system is H. contortus susceptible strain. Nature of the data set: Larval migration inhibition test (LMIT). Set-up: species or system Haemonchus contortus. The following applies: L3, 100 μM, NE = Not Effective at 100 μM, control ivermectin 8.75 µg/mL; for inhibition at 100 µM: Haemonchus contortus, 24 h.
Text: as §1, §2, §3

In data set [10] the test system is Staphylococcus epidermidis, Escherichia coli, and Candida albicans. Set-up: method as in earlier work. The following applies: in vitro; cited from earlier work.
For the next data set, the system named is HepG2 liver spheroids. Nature of the data set: Spheroids toxicity assay (alamarBlue). The data set is classed as cell-based. Here is the method: as §4, §5, §6, §7
For data set [11], the system named is mouse intestinal organoids (enteroids). As to the kind of experiment: Mouse intestinal organoids' tolerance assay (alamarBlue). As to conditions: read-out: Citotoxicity CC50 (μM) Ent; mouse enteroid.
Data set [12] deals with C. elegans.
Data set [13] relates to mouse intestinal organoids (enteroids). The following applies: C57BL/6, mouse.
For data set [14], the system named is C. elegans. As to conditions: read-out: EC50 found in the literature; cited from earlier work.
The nature of a further data set: in vitro. The following applies: C57BL/6, mouse.
Another data set concerns H. contortus L3-L4. The following applies: read-out: IC50 against H. contortus L3-L4; cited from earlier work.
For data set [15] the following is noted: human poisoning case; cited from earlier work.
For data set [16] the following is noted: mice, estimated; cited from earlier work.
[17] abbreviates: Haemonchus contortus, susceptible strain, 100 μM, NE = Not Effective at 100 μM, control thiabendazole 0.1 µg/mL.
Setting [18] is: Selective Index (SI) CC50/EC50 Ent/H. c, CC50 mouse enteroid / EC50 H. contortus.
Setting [19] is: Selective Index (SI) CC50/EC50 Ent/T. c, CC50 mouse enteroid / EC50 T. circumcincta.
[20] abbreviates: Teladorsagia circumcincta, resistant strain, 100 μM, NE = Not Effective at 100 μM, control thiabendazole 0.1 µg/mL.
Where [21] appears, read: HepG2 liver spheroids, read-out: Citotoxicity CC50 (μM) Sph.

One may read the EC50 as the midpoint of the concentration-response curve. Take `CCCCCCCCN=c1ccn(CCCCCCCCCCn2ccc(=NCCCCCCCC)cc2)cc1` [Octenidine, reference compound]: the concentration for a half-maximal effect (EC50) in [1] (Haemonchus contortus) was 2.1 ± 0.1 µM; in the data set with C. elegans [6] (Caenorhabditis elegans, 24 h, read-out: EC50 (μM) at 24 h, C. elegans motility, DR assay, 24 h) it was 6.9 ± 0.5 µM; in data set [7] (Teladorsagia circumcincta), 15.1 ± 4.8 µM. The inhibition at 100 µM is 99.5 ± 0.8% in data set [1] (setting [17]), 94.8 ± 4.3% in data set [2], 99.5 ± 0.9% in [7] (setting [20]) and 98.3 ± 0.3% in data set [9]. In addition, the CC50 at 3 d was found to be 54.1 ± 2.8 µM in [3] (HepG2 liver spheroids (3D culture), read-out: Citotoxicity CC50 (μM) Sph) and 14.2 ± 0.4 µM in data set [5]. Besides, the selectivity ratio at 3 d in [3] (HepG2 liver spheroids, pH 7.2, CC50 HepG2 spheroids / EC50 H. contortus, read-out: Selective Index (SI) CC50/EC50 Sph/H. c) is 25.8; in [3] (HepG2 liver spheroids, pH 7.2, CC50 HepG2 spheroids / EC50 T. circumcincta, read-out: Selective Index (SI) CC50/EC50 Sph/T. c), 3.6; in data set [5] (setting [18]), 6.8; in [5] (setting [19]), 0.9. Also, the GHS classification result in data set [4] is reported as “category 4: acute toxicity”. Further, the inhibition at 110 µM with C. elegans [8] (0 h, read-out: Inhibition (%) 110 μM (0 h), C. elegans L4 motility, 110 μM, 0 h, mean ± SD of four experiments) came to 84 ± 1%; with C. elegans [8] (24 h, read-out: Inhibition (%) 110 μM (24 h), C. elegans L4 motility, 110 μM, 24 h, mean ± SD of four experiments), 96 ± 5%. The “Concentration leading to a microbial reduction of more than 99% within 15 min” value in data set [10] is recorded as “below 1.5 μM”.

As to `O=C(/C=C/c1ccccc1)c1ccccc1` [Trans-chalcone], the EC50 in [1] was found to be 3.1 ± 0.2 µM; with C. elegans [6] (read-out: EC50 (μM) at 24 h, C. elegans motility, DR assay), 24.9 ± 1.8 µM; in data set [7], 4.9 ± 0.2 µM. In data set [1] (susceptible strain, 100 μM, NE = Not Effective at 100 μM, control thiabendazole 0.1 µg/mL), the “H. contortus EHI (%)” value was 99.5 ± 0.7%. The results for the CC50 (in the data set with HepG2 liver spheroids (setting [21]); in data set [11]) were over 90 µM and over 50 µM, respectively. Also, the “Selective Index (SI) CC50/EC50 Sph/H. c” value in the data set on HepG2 liver spheroids (human, pH 7.2) is given as over 29.0. The “Selective Index (SI) CC50/EC50 Sph/T. c” value in the data set on HepG2 liver spheroids (human, pH 7.2) is reported as over 18.4. In [7] (resistant strain, 100 μM, NE = Not Effective at 100 μM, control thiabendazole 0.1 µg/mL), the “T. circumcincta EHI (%)” value is reported as 99.9 ± 0.2%. Moreover, the “Inhibition (%) 110 μM (0 h)” value in the data set on C. elegans [12] (0 h, 110 μM) is recorded as 16 ± 17%. Moreover, the “Inhibition (%) 110 μM (24 h)” value in the data set on C. elegans [12] (24 h, 110 µM) turned out to be 95 ± 5%. For the same compound, the inhibition at 110 µM with C. elegans [8] (0 h, read-out: Percentage of motility inhibition 0 h, Table S2, C. elegans SS assay, 110 μM, 0 h, averages of 4 data points) was 17%; with C. elegans [8] (24 h, read-out: Percentage of motility inhibition 24 h, Table S2, C. elegans SS assay, 110 μM, 24 h, averages of 4 data points), 96%. Moreover, the “Selective Index (SI) CC50/EC50 Ent/H. c” value in [13] is listed as over 16.1. The “Selective Index (SI) CC50/EC50 Ent/T. c” value in data set [13] is over 10.2. Besides, in [9], the “H. contortus LMIT (%)” value was determined as 20.3 ± 7.5%.

As usually defined, the IC50 is the concentration that inhibits the measured activity by half. Take `CCc1nn(C)c(C(=O)NCc2ccc(Oc3ccc(C)cc3)cc2)c1Cl` [Tolfenpyrad]: the EC50 in [1] (Haemonchus contortus) was 1.5 ± 0.1 µM; in the data set on C. elegans [14], 3.6 µM; in the data set on C. elegans [6] (Caenorhabditis elegans, read-out: EC50 (μM) at 24 h, C. elegans motility, DR assay) it was 2.4 ± 0.2 µM; in data set [7] (Teladorsagia circumcincta), 0.2 ± 0.3 µM. For the same compound, the inhibition at 100 µM in data set [1] (setting [17]) came to 96 ± 2.9%; in [7] (setting [20]), 99.7 ± 0.5%; in data set [9], 9 ± 6.3%. The selectivity ratio in [3] (pH 7.2, CC50 HepG2 spheroids / EC50 H. contortus, read-out: Selective Index (SI) CC50/EC50 Sph/H. c) is over 33.3; in data set [3] (pH 7.2, CC50 HepG2 spheroids / EC50 T. circumcincta, read-out: Selective Index (SI) CC50/EC50 Sph/T. c), 250; in the data set “in vitro” (setting [18]), under 0.7; in “in vitro” (setting [19]) it was under 5. Further, the CC50 in data set [3] (setting [21]) was over 50 µM; in “in vitro”, under 1 µM. Besides, the GHS classification result in [4] is “category 4: acute toxicity”. Moreover, the IC50 with H. contortus L3-L4 was 0.02 to 3 µM. The inhibition at 110 µM amounted to 80 ± 2% with C. elegans [8] (0 h, read-out: Inhibition (%) 110 μM (0 h)) and 98 ± 2% in the data set on C. elegans [8] (24 h, read-out: Inhibition (%) 110 μM (24 h)). For the same compound, the “Plasma concentration in a poisoning case” value in data set [15] was 1.97 µg/mL and 5.08 µM. In [16], the “Maximum tolerated dose (MTD)” value is listed as 1 mg/kg.
